Experiment [1] concerns recombinant Bombyx mori JHAMT. Description: Juvenile hormone synthesis by recombinant juvenile hormone acid methyltransferase (enzyme reaction, reverse phase HPLC). The class given is biochemical. The following applies: 25° C.; for production of the corresponding active juvenile hormone in the reaction solution: 100 μg substrate, S-adenosyl methionine, ten minutes, reverse phase HPLC (FIG. 4); for molecular activity (number of substrate molecules changed to reaction product by one molecule of the enzyme in one minute): Tris-HCL 50 mM, pH 7.5, 1 mM S-adenosyl methionine and 100 μM of each JH acid, mean±standard deviation, n=3. On the procedure:
(§1) A reverse phase column (CAPCELL PAK C18 UG80 S-5, 3×150 mm, Shiseido) was attached to an HPLC apparatus (JASCO), and juvenile hormones were detected by measuring absorbance at 217 nm using an ultraviolet detector. Samples were flowed at a rate of 0.5 ml/min, at a column retention temperature of 40° C., for 20 minutes, in 60% acetonitrile or 80% acetonitrile.
100 μg of a juvenile hormone acid (either JH I acid, JH II acid, JH III acid, or farnesoic acid) dissolved in toluene was transferred into a silicone-treated glass test tube (10×150 mm) using a glass capillary, and the solvent was removed under a nitrogen stream. 800 μl of buffer (50 mM Tris-Cl, pH 7.5) and 100 μl of 10 mM S-adenosyl methionine solution were added thereto and mixed sufficiently, then left to stand in a 25° C. thermostat water bath for five minutes. 100 μl of the recombinant protein solution obtained by the method of Example 3 was added thereto to initiate enzyme reaction. After ten minutes, 250 μl of reaction termination solution (methanol:water:concentrated aqueous ammonia=10:9:1) was added to terminate the enzyme reaction 1 ml of isooctane was added and mixed sufficiently, then the mixture was centrifuged (2,000 rpm, 15 minutes, room temperature) to separate the organic solvent layer and the aqueous layer. 100 μl of the organic solvent layer was transferred into a small vial using a glass capillary, and then the solvent was removed under a nitrogen stream to obtain a residue, which was dissolved in 100 μl of acetonitrile to analyze the synthesized juvenile hormone by a method using reverse phase HPLC. […] The molecular activities of the recombinant Bombyx mori JHAMT against JH I acid, JH II acid, JH III acid, and farnesoic acid were determined in conditions where the buffer was Tris-HCL (50 mM, pH 7.5), the reaction temperature was 25° C., and the substrates were 1 mM of S-adenosyl methionine and 100 μM of each JH acid. These activities (the number of substrate molecules changed to reaction product by one molecule of the enzyme in one minute) were 1.80±0.32, 1.65±0.23, 0.79 ±0.06, and 0.48±0.07 (mean±standard deviation n=3), respectively. When a saturated straight chain fatty acid or an unsaturated straight chain fatty acid was used as a substrate, methyl esterification by the enzyme was not observed. Therefore, the enzyme reaction was substrate-specific to juvenile hormone acid.

In experiment [2] the target is T1, recombinant Drosophila melanogaster JHAMT (Drosophila melanogaster, UniProt Q9VJK8, F166Y/S182N).
T1 construct: to amplify the coding region of the juvenile hormone acid methyltransferase gene from Drosophila melanogaster; made in house
Description: Molecular activity of recombinant Drosophila melanogaster juvenile hormone acid methyltransferase. The following applies: Tris-HCL 50 mM, pH 7.5; 25° C.; 1 mM S-adenosyl methionine and 100 μM of each JH acid; mean±standard deviation, n=3. The class given is biochemical. On the procedure: as §1
100 μg of a juvenile hormone acid (either JH I acid, JH II acid, JH III acid, or farnesoic acid) dissolved in toluene was transferred into a silicone-treated glass test tube (10×150 mm) using a glass capillary, and the solvent was removed under a nitrogen stream. 800 μl of buffer (50 mM Tris-Cl, pH 7.5) and 100 μl of 10 mM S-adenosyl methionine solution were added thereto and mixed sufficiently, then left to stand in a 25° C. thermostat water bath for five minutes. 100 μl of the recombinant protein solution obtained by the method of Example 3 was added thereto to initiate enzyme reaction. After ten minutes, 250 μl of reaction termination solution (methanol:water:concentrated aqueous ammonia=10:9:1) was added to terminate the enzyme reaction 1 ml of isooctane was added and mixed sufficiently, then the mixture was centrifuged (2,000 rpm, 15 minutes, room temperature) to separate the organic solvent layer and the aqueous layer. […] The molecular activities of the recombinant Bombyx mori JHAMT against JH I acid, JH II acid, JH III acid, and farnesoic acid were determined in conditions where the buffer was Tris-HCL (50 mM, pH 7.5), the reaction temperature was 25° C., and the substrates were 1 mM of S-adenosyl methionine and 100 μM of each JH acid. […]
cDNAs synthesized by reverse transcription of RNA extracted from a whole adult Drosophila melanogaster were used as a template for PCR using the DMJF primer (SEQ ID NO: 17) and DMJR primer (SEQ ID NO: 18) to amplify the coding region of the juvenile hormone acid methyltransferase gene from Drosophila melanogaster. […] The activity of the recombinant protein was determined by the same method as in Example 4, confirming that the protein encoded by the gene had juvenile hormone acid methyltransferase activity. The molecular activities of the recombinant Drosophila melanogaster JHAMT against JH I acid, JH II acid, JH III acid, and farnesoic acid were determined under conditions where the buffer was Tris-HCL (50 mM, pH 7.5), the reaction temperature was 25° C., and the substrates were 1 mM of S-adenosyl methionine and 100 μM of each JH acid. These activities were determined to be 2.67±0.44, 2.07±0.26, 1.76±0.13, and 2.3±0.51 (mean±standard deviation, n=3), respectively.

T1 sequence (Q9VJK8 whole entry F166Y/S182N): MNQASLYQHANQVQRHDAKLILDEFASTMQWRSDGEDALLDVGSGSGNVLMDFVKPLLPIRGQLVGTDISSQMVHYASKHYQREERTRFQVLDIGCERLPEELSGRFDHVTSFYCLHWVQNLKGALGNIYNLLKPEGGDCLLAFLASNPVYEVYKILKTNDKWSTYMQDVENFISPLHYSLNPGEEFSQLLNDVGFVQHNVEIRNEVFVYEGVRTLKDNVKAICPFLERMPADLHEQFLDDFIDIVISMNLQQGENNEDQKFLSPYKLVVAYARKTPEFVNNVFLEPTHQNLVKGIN

Regarding `C/C(=C\C(=O)O)CC/C=C(\C)CCC1OC1(C)C` (stereo not drawn) [JH III acid], in experiment [1], the “production of the corresponding active juvenile hormone in the reaction solution” value (“production” below) is reported as “confirmed to be produced” and the “molecular activity (number of substrate molecules changed to reaction product by one molecule of the enzyme in one minute)” value is 0.79 ±0.06. Moreover, the molecular activity in experiment [2] was 1.76±0.13.

For `CC[C@]1(C)O[C@@H]1CC/C(C)=C/CC/C(C)=C/C(=O)O` [JH II acid], in experiment [1], the “production” value is “confirmed to be produced” and the “molecular activity (number of substrate molecules changed to reaction product by one molecule of the enzyme in one minute)” value came out at 1.65±0.23. In addition, in experiment [2], the molecular activity amounted to 2.07±0.26.

Regarding `CC(C)=CCCC(C)=CCCC(C)=CC(=O)O` [farnesoic acid], in experiment [1], the “production” value is listed as “confirmed to be produced” and the “molecular activity (number of substrate molecules changed to reaction product by one molecule of the enzyme in one minute)” value is listed as 0.48±0.07. Besides, the molecular activity in experiment [2] was 2.3±0.51.

For `CC/C(=C\CC/C(C)=C/C(=O)O)CCC1OC1(C)CC` (stereo not drawn) [JH I acid], in experiment [1], the “production” value is given as “confirmed to be produced” and the “molecular activity (number of substrate molecules changed to reaction product by one molecule of the enzyme in one minute)” value was found to be 1.80±0.32. Besides, the molecular activity in experiment [2] is on record as 2.67±0.44.

These data come from patent US20070128235A1, “Juvenile hormone transmethylase genes and method of using the same” (Inc. Admin Agency Natl Agr and Bio-oriented Research Org, priority 2003, published 2007).
